Measured values reported in patent US5081121A, “4(1H)-quinolone derivatives” (priority 1988, dated 1992).
Like-named read-outs stand apart in the source and are kept apart here.

System: left atrial muscle
Assay: Test Method 1: enhancement of contracting force of left atrial muscle extirpated from a guinea pig (electrically stimulated at 1 Hz)
Format: cell-based
Conditions: Krebs-Henseleit solution 32° C.; for EC20: read-out: EC20 (molar concentration for enhancing the left atrial muscle contracting force to the level of 20%); for EC50: read-out: EC50 (molar concentration for enhancing the left atrial muscle contracting force to the level of 50%); for EC100: read-out: EC100 (molar concentration for enhancing the left atrial muscle contracting force to the level of 100%)
Description: The drug according to the present invention was evaluated with reference to the physiological activities by means of a method using an atrial muscle extirpated from a guinea pig.
Male guinea pigs having a body weight of 300-500 g were made swooned by striking his head and were bleeded to death. The heart was extirpated and the right and left atrial muscles were cut off. The tops of each atrial muscle were fixed with cerrefines. The muscle was suspended into an organ-bath in which a Krebs-Henseleit solution (at 32° C.) was filled, and a 95% O2 -5% CO2 gas was flown through the bath. The left atrial muscle was stimulated electrically at a frequency of 1 Hz to stabilize the contracting force of the left atrial muscle. Then, the compounds according to the present invention represented by the general formulae were added to the organ-bath. As for the right atrial muscle, after the pulsation was stabilized, the compounds according to the present invention were added in the organ-bath in the same manner as described above.
The compounds according to the present invention represented by the aforementioned general formulae enhanced the left atrial muscle contracting force dependent on their concentrations. The drug concentrations for enhancing the left atrial muscle contracting force to the levels of 20%, 50% and 100%, respectively are listed in Table 2. EC20, EC50 and EC100 indicate the molar concentration for enhancing the left atrial muscle contracting force to the levels of 20%, 50% and 100%, respectively. The enhancing rates of the pulsation of the right atrial muscle are also listed within parentheses. The minus values in parentheses indicate that the pulsation of the right atrial muscle is decreased.
As a control drug, theophylline ([…].

SMILES	EC20 (Cavia porcellus) [µM]	EC50 (Cavia porcellus) [µM]	EC100 (Cavia porcellus) [µM]	EC20 (molar concentration for enhancing the left atrial muscle contracting force to the level of 20%) [µM]	EC100 (molar concentration for enhancing the left atrial muscle contracting force to the level of 100%) [µM]	EC50 [µM]
C=CCc1cccc2c(=O)cc[nH]c12 [Compound 70, 8-(2-propenyl)-4(1H)-quinolone]	< 100	159				
CCCCOc1cc2[nH]c(C3CC3)cc(=O)c2cc1OC [Compound 115, 7-n-butoxy-2-cyclopropyl-6-methoxy-4(1H)-quinolone]	15.3	81.3	202			
C/C=C/Cc1c(O)c(OC)cc2c(=O)cc[nH]c12 [Compound 72, 8-(2-trans-butenyl)-7-hydroxy-6-methoxy-4(1H)-quinolone]				35.5	211	63.1
COc1ccc(C)c2c(=O)c(C(=O)N3CCC(c4ccccc4)CC3)c[nH]c12 [Compound 106, 8-methoxy-5-methyl-3-(4-phenylpiperidinyl)carbonyl-4(1H)-quinolone]	102	245	447			
Cc1cc(Cl)cc2c(=O)cc[nH]c12 [Compound 71, 6-chloro-8-methyl-4(1H)-quinolone]	12.3	54.3				
CCOc1cc2c(cc1OC)c(=O)ccn2CC(C)C [Compound 69, 1-i-butyl-7-ethoxy-6-methoxy-4(1H)-quinolone]	4.32	462				
CCn1ccc(=O)c2cc(OC)ccc21 [Compound 73, 1-ethyl-6-methoxy-4(1H)-quinolone]	< 100	115	241			
O=c1cc(C2CC2)[nH]c2ccccc12 [Compound 96, 2-cyclopropyl-4(1H)-quinolone]	123	374				
CCn1cc(C(=O)N2CCN(c3ccccc3OC)CC2)c(=O)c2cc(C)ccc21 [Compound 108, 1-ethyl-3-{1-[4-(2-methoxyphenyl)piperazinyl]carbonyl}-6-methyl-4(1H)-quinolone]	44.2	126				
O=c1cc[nH]c2cc(N3CCNCC3)ccc12 [Compound 67, 7-piperazinyl-4(1H)-quinolone]	46.8	211	944			
CCOC(=O)c1c[nH]c2c(OC)cc(OCC)cc2c1=O [Compound 76, 6-ethoxy-3-ethoxycarbonyl-8-methoxy-4(1H)-quinolone]	38.9	73.3	305			
CCOc1cc2[nH]ccc(=O)c2cc1OCC [Compound 10, 6,7-diethoxy-4(1H)-quinolone]	1.88	19.3	116			
CCn1cc(C(=O)N2CCN(c3ccc([N+](=O)[O-])cc3)CC2)c(=O)c2cc(OC)c(OC)cc21 [Compound 110, 6,7-dimethoxy-1-ethyl-3-{1-[4-(4-nitrophenyl)piperazinyl]carbonyl}-4(1H)-quinolone]	105	178				
CCn1ccc(=O)c2cc3c(cc21)OCO3 [Compound 60, 1-ethyl-6,7-methylenedioxy-4(1H)-quinolone]	< 100	279				
CCOc1cc(OC)cc2c(=O)cc[nH]c12 [Compound 47, 8-ethoxy-6-methoxy-4(1H)-quinolone]	< 100	< 100	200			
COCCOc1cc2[nH]ccc(=O)c2cc1OC [Compound 55, 6-methoxy-7-(2-methoxy)ethoxy-4(1H)-quinolone]	132	394				
COc1cc2[nH]c(-c3ccco3)cc(=O)c2cc1OC [Compound 94, 6,7-dimethoxy-2-(2-furyl)-4(1H)-quinolone]	< 100	< 100	417			
CCOc1cc2c(=O)cc[nH]c2cc1OC [Compound 48, 6-ethoxy-7-methoxy-4(1H)-quinolone]	12.6	106	646			
CCOCCOC(=O)c1c[nH]c2c(OC)ccc(OCC)c2c1=O [Compound 79, 5-ethoxy-3-[(2-ethoxy)ethoxycarbonyl]-8-methoxy-4(1H)-quinolone]	< 100	135	680			
CCOC(=O)c1ccc2[nH]ccc(=O)c2c1 [Compound 65, 6-ethoxycarbonyl-4(1H)-quinolone]	< 100	345				
COc1cc2[nH]cc(C(=O)N3CCC(c4ccccc4)CC3)c(=O)c2cc1OC [Compound 105, 6,7-dimethoxy-3-(4-phenylpiperidinyl)carbonyl-4(1H)-quinolone]	< 100	221				

SMILES	EC20 (Cavia porcellus) [µM]	EC50 (Cavia porcellus) [µM]	EC100 (Cavia porcellus) [µM]	EC20 (molar concentration for enhancing the left atrial muscle contracting force to the level of 20%) [µM]	EC100 (molar concentration for enhancing the left atrial muscle contracting force to the level of 100%) [µM]	EC50 [µM]
CC(=O)c1cccc2c(=O)cc[nH]c12 [Compound 44, 8-acetyl-4(1H)-quinolone]	< 100	136	776			
CCn1cc(C(=O)O)c(=O)c2cc(C)ccc21 [Compound 90, 3-carboxyl-1-ethyl-6-methyl-4(1H)-quinolone]	181	345	394			
CCOC(=O)c1cn(CC)c2c(C)ccc(OC(C)=O)c2c1=O [Compound 82, 5-acetoxy-3-ethoxycarbonyl-1-ethyl-8-methyl-4(1H)-quinolone]	< 100	168				
CCOc1ccc2c(c1)c(=O)ccn2CC [Compound 74, 6-ethoxy-1-ethyl-4(1H)-quinolone]	< 100	108	546			
C=CCOc1cc2[nH]ccc(=O)c2cc1OC [Compound 53, 7-allyloxy-6-methoxy-4(1H)-quinolone]	< 100	117	240			
COc1cc2c(=O)c(C(=O)O)cn(C)c2c(C)c1C [Compound 89, 3-carboxyl-6-methoxy-1,7,8-trimethyl-4(1H)-quinolone]	< 100	657				
COCOc1cc2[nH]ccc(=O)c2cc1OC [Compound 56, 6-methoxy-7-methoxymethoxy-4(1H)-quinolone]	114	405				
O=c1cc[nH]c2ccc(CCO)cc12 [Compound 64, 6-(2-hydroxy)ethyl-4(1H)-quinolone]	157	234	495			
CCCn1cc(C(=O)O)c(=O)c2cc(OC)c(OCC)cc21 [Compound 93, 3-carboxyl-7-ethoxy-6-methoxy-1-n-propyl-4(1H)-quinolone]	376	465				
CCn1ccc(=S)c2cc3c(cc21)OCO3 [Compound 63]	42.2	112				
CCCCn1ccc(=O)c2cc(OC)c(OCC)cc21 [Compound 68, 1-n-butyl-7-ethoxy-6-methoxy-4(1H)-quinolone]	2.82	19.5				
CCOc1cc2c(=O)c(C(=O)O)cn(CC)c2c(C)c1C [Compound 88, 3-carboxyl-7,8-dimethyl-6-ethoxy-1-ethyl-4(1H)-quinolone]	< 100	202	856			
COc1cc(SC)c2[nH]ccc(=O)c2c1 [Compound 30, 6-methoxy-8-methylsufenyl-4(1H)-quinolone]	6.92	78.5	881			
CCOc1cc2c(=O)cc(C3CC3)[nH]c2cc1OC [Compound 119, 2-cyclopropyl-6-ethoxy-7-methoxy-4(1H)-quinolone]	37.6	84.1				
CCn1ccc(=O)c2ccc(C)cc21 [Compound 57, 1-ethyl-7-methyl-4(1H)-quinolone]	< 100	248				
CCOC(=O)c1cn(CC)c2c(OC)cc(OCC)cc2c1=O [Compound 77, 6-ethoxy-3-ethoxycarbonyl-1-ethyl-8-methoxy-4(1H)-quinolone]	4.73	50.1				
CCOC(=O)c1c[nH]c2c(S(=O)(=O)c3ccccc3)cccc2c1=O [Compound 83, 3-ethoxycarbonyl-8-phenylsulfonyl-4(1H)-quinolone]	19.5	363				
CCn1ccc(=O)c2c(O)ccc(C)c21 [Compound 61, 1-ethyl-5-hydroxy-8-methyl-4(1H)-quinolone]	< 100	107				
COc1cc2[nH]ccc(=O)c2cc1OC [Compound 6, 6,7-dimethoxy-4(1H)-quinolone]	10	35.5	234			
CCn1cc(C(=O)O)c(=O)c2c(C)cccc21 [Compound 87, 3-carboxyl-1-ethyl-5-methyl-4(1H)-quinolone]	< 100	327				
N#CCc1ccc2[nH]ccc(=O)c2c1 [Compound 45, 6-cyanomethyl-4(1H)-quinolone]	< 100	274	510			
